In PubChem BioAssay AID1845213 (Molecular Pharmacology Branch, DTP, NCI, 2023):
pIC50: −log10 of the molar value.

Test system: NCI-H841 complex tumor spheroid viability
Assay: Anticancer human tumor NCI-H841 cell line growth inhibition;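 also: spheroids exposed to compounds for 7 days before readout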;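 as to viability, T/C: 100% = DMSO vehicle control wells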
Details: for pIC50: curve of first compound; for viability, T/C: stronger effect = lower value
Source text: Multicellular complex tumor spheroid response to DNA repair inhibitors in combination with DNA-damaging drugs
This study explores the anticancer activities of DNA-damaging drugs and inhibitors of DNA damage repair, both as single agents and in combinations. Complex tumor spheroids comprised of malignant cells, endothelial cells and mesenchymal stem cells served as an in vitro model for human solid tumors. This model system incorporates physiologically relevant features and patient-derived or established malignant cell lines with clinically relevant genetic alterations from many tumor types. Twenty-six patient-derived or established malignant cell lines were evaluated representing sarcoma, melanoma, small cell lung cancer (SCLC), non-small cell lung cancer (NSCLC), as well as bladder, ovarian and pancreatic cancers. The concentration ranges selected for each drug and investigational agent were based upon clinically achievable concentrations if the clinical Cmax of the agent was known.
Compounds. The drugs and compounds olaparib (NSC753686), talazoparib (NSC767125), berzosertib (NSC777718), elimusertib (NSC800525), nedisertib (NSC802822), VX-984 (NSC792969), AZD-1390 (NSC803789), temozolomide (NSC362856), topotecan (NSC609699), trabectedin (NSC813783), staurosporine (NSC755774), and gemcitabine (NSC613327) were obtained from the National Cancer Institute (NCI) Developmental Therapeutics Program Chemical Repository. The FDA-approved anticancer drug set is available from the Developmental Therapeutics Program at https://dtp.cancer.gov/organization/dscb/obtaining/available_plates.htm. […] The stock solutions were prepared in dimethyl sulfoxide (DMSO, Sigma-Aldrich, St. Louis, MO, cat. D2650) at 400-fold the tested concentration and stored at -70 degrees C. Prior to their use, the stock solutions were diluted in fresh medium and the final DMSO concentration in the assay was 0.25% (v/v). All drugs and investigational agents were tested over a range starting from a high concentration at or near the clinical Cmax and decreasing in half-log increments. If the clinical Cmax for an agent had not been determined, the highest concentration tested was 10 microM.
Cell Lines. The patient-derived cancer cell (PDC) lines: 156681-154-R-J1-PDC, 283228-195-R-J1-PDC, 287954-098-R-J1-PDC, 292921-168-R-J2-PDC, 349418-098-R-PDC, 425362-245-T-J1-PDC, 556581-035-R-J1-PDC, and BL0293-F563-PDC were received from the NCI Patient-Derived Models Repository (PDMR, https://pdmr.cancer.gov). The established cell lines HS-SY-2 (RRID:CVCL_8719), MPNST, and SYO-1 (RRID:CVCL_7146) were obtained from the Sloan Kettering Institute. The alveolar soft parts sarcoma cell line ASPS-1 (RRID:CVCL_S738) was established at the NCI and grown from internal seed stocks. The following established cell lines were purchased from the American Type Culture Collection (ATCC, Manassas, VA): G-401 (ATCC, cat. CRL-1441, RRID:CVCL_0270), SW982 (ATCC, cat. HTB-93, RRID:CVCL_1734), VA-ES-BJ (ATCC, cat. CRL-2138, RRID:CVCL_1785), NCI-H719 (ATCC, cat. CRL-5837, RRID:CVCL_1582), NCI-H196 (ATCC, cat. CRL-5823, RRID:CVCL_1509), NCI-H841 (ATCC, cat. CRL-5845, RRID:CVCL_1595), NCI-H1618 (ATCC, cat. CRL-5879, RRID:CVCL_1480), NCI-H1876 (ATCC, cat. CRL-5902, RRID:CVCL_1503), DMS 114 (ATCC, cat. CRL-2066; RRID:CVCL_1174), NCI-H211 (ATCC, cat. CRL-5824; RRID:CVCL_1529), and SW 1271 (ATCC, cat. CRL-2177, RRID:CVCL_1716). The small cell lung cancer cell line COR-L88 was purchased from Sigma-Aldrich (cat. 92031917-1VL, RRID:CVCL_1141). The non-small cell lung cancer cell lines NCI-H226 (RRID:CVCL_1544) and NCI-H322M (RRID:CVCL_1557) were established at the NCI and grown from internal seed stocks. Pooled donor human umbilical vein endothelial cells (HUVEC, Lonza, cat. CC-2519) and human mesenchymal stem cells (hMSC, Lonza, cat. PT-2501) were purchased from Lonza (Walkersville, MD).
Cell Culture. All cells were maintained in an incubator at 37 degrees C and 5% CO2 with 95% humidity. […]

[1] = second compound 0.003 µM, first compound 0.00949 µM
[2] = second compound 0.003 µM, first compound 0.03 µM
[3] = second compound 0.003 µM, first compound 0.0949 µM
[4] = second compound 0.003 µM, first compound 0.3 µM
[5] = second compound 0.003 µM, first compound 0.949 µM
[6] = second compound 0.003 µM, first compound 3 µM
[7] = second compound 0.00949 µM, first compound 0.00949 µM
[8] = second compound 0.00949 µM, first compound 0.03 µM
[9] = second compound 0.00949 µM, first compound 0.0949 µM
[10] = second compound 0.00949 µM, first compound 0.3 µM
[11] = second compound 0.00949 µM, first compound 0.949 µM
[12] = second compound 0.00949 µM, first compound 3 µM
[13] = second compound 0.03 µM, first compound 0.00949 µM
[14] = second compound 0.03 µM, first compound 0.03 µM
[15] = second compound 0.03 µM, first compound 0.0949 µM
[16] = second compound 0.03 µM, first compound 0.3 µM
[17] = second compound 0.03 µM, first compound 0.949 µM
[18] = second compound 0.03 µM, first compound 3 µM
[19] = second compound 0.0949 µM, first compound 0.00949 µM
[20] = second compound 0.0949 µM, first compound 0.03 µM
[21] = second compound 0.0949 µM, first compound 0.0949 µM
[22] = second compound 0.0949 µM, first compound 0.3 µM
[23] = second compound 0.0949 µM, first compound 0.949 µM
[24] = second compound 0.0949 µM, first compound 3 µM
[25] = second compound 0.3 µM, first compound 0.00949 µM
[26] = second compound 0.3 µM, first compound 0.03 µM
[27] = second compound 0.3 µM, first compound 0.0949 µM
[28] = second compound 0.3 µM, first compound 0.3 µM
[29] = second compound 0.3 µM, first compound 0.949 µM
[30] = second compound 0.3 µM, first compound 3 µM

Compound | pIC50 (second compound 0.003 µM) | pIC50 (second compound 0.00949 µM) | pIC50 (second compound 0.03 µM) | pIC50 (second compound 0.0949 µM) | pIC50 (second compound 0.3 µM) | viability, T/C [3] | viability, T/C [4] | viability, T/C [5] | viability, T/C [6] | viability, T/C [9] | viability, T/C [10] | viability, T/C [11] | viability, T/C [12] | viability, T/C [15] | viability, T/C [16] | viability, T/C [17] | viability, T/C [18] | viability, T/C [21] | viability, T/C [22] | viability, T/C [23] | further results
CNCc1ccc(-c2cc(-c3nc(-c4ccc(S(=O)(=O)C(C)C)cc4)cnc3N)on2)cc1 + CC[C@@]1(O)C(=O)OCc2c1cc1n(c2=O)Cc2cc3c(CN(C)C)c(O)ccc3nc2-1 | 7.25 | > 8.02 | > 8.02 | > 8.02 | > 8.02 | 25.8% | 5.41% | 1.29% | 0.44% | 7.71% | 1.95% | 1% | 0.31% | 1.25% | 1.64% | 0.71% | 0.17% | 0.92% | 0.89% | 0.76% | viability, T/C [1]: 89.3%; viability, T/C [2]: 78.7%; viability, T/C [7]: 49.2%; viability, T/C [8]: 35.6%; viability, T/C [13]: 1.53%; viability, T/C [14]: 4.09%; viability, T/C [19]: 1.32%; viability, T/C [20]: 3.66%; viability, T/C [24]: 0.15%; viability, T/C [25]: 1.45%; viability, T/C [26]: 1.41%; viability, T/C [27]: 1.07%; viability, T/C [28]: 0.61%; viability, T/C [29]: 2.25%; viability, T/C [30]: 0.16%
Cc1sc2c(c1C)C(c1ccc(Cl)cc1)=NC(CC(=O)Nc1ccc(O)cc1)c1nnc(C)n1-2 (stereo not given) + CC[C@@]1(O)C(=O)OCc2c1cc1n(c2=O)Cc2cc3c(CN(C)C)c(O)ccc3nc2-1 | 6.82 | 7.90 | > 8.02 | > 8.02 | > 8.02 | 66.2% | 26.5% | 6.68% | 1.61% | 27.9% | 4.81% | 1.04% | 0.47% | 0.85% | 0.58% | 0.55% | 0.5% | 0.98% | 0.78% | 0.62% | viability, T/C [1]: 88%; viability, T/C [2]: 85%; viability, T/C [7]: 63.4%; viability, T/C [8]: 9.92%; viability, T/C [13]: 1.92%; viability, T/C [14]: 4.07%; viability, T/C [19]: 1.59%; viability, T/C [20]: 1.44%; viability, T/C [24]: 5.05%; viability, T/C [25]: 1.48%; viability, T/C [26]: 1.46%; viability, T/C [27]: 1.06%; viability, T/C [28]: 0.57%; viability, T/C [29]: 0.28%; viability, T/C [30]: 0.2%
Cn1ncnc1[C@H]1c2n[nH]c(=O)c3cc(F)cc(c23)N[C@@H]1c1ccc(F)cc1 + CC[C@@]1(O)C(=O)OCc2c1cc1n(c2=O)Cc2cc3c(CN(C)C)c(O)ccc3nc2-1 | > 8.02 | > 8.02 | > 8.02 | > 8.02 | > 8.02 | 29.9% | 8.52% | 1.44% | 1.96% | 2.55% | 1.48% | 1.52% | 2.21% | 1.39% | 1.4% | 1.41% | 1.81% | 1.61% | 1.69% | 1.52% | viability, T/C [1]: 47.7%; viability, T/C [2]: 40.1%; viability, T/C [7]: 5.87%; viability, T/C [8]: 2.75%; viability, T/C [13]: 1.67%; viability, T/C [14]: 1.74%; viability, T/C [19]: 1.86%; viability, T/C [20]: 1.68%; viability, T/C [24]: 1.31%; viability, T/C [25]: 0.97%; viability, T/C [26]: 0.99%; viability, T/C [27]: 0.94%; viability, T/C [28]: 0.9%; viability, T/C [29]: 0.63%; viability, T/C [30]: 0.52%
O=C(c1cc(Cc2n[nH]c(=O)c3ccccc23)ccc1F)N1CCN(C(=O)C2CC2)CC1 + CC[C@@]1(O)C(=O)OCc2c1cc1n(c2=O)Cc2cc3c(CN(C)C)c(O)ccc3nc2-1 | 5.83 | > 7.02 | > 7.02 | > 7.02 | > 7.02 | 79.5% | 75.1% | 60.5% | 33.6% | 19.2% | 17.4% | 12.7% | 3.98% | 1.3% | 1.56% | 1.06% | 1.3% | 7.65% | 1.58% | 1.52% | viability, T/C (second compound 0.003 µM, first compound 9.49 µM): 6.04%; viability, T/C (second compound 0.003 µM, first compound 30 µM): 2.34%; viability, T/C (second compound 0.00949 µM, first compound 9.49 µM): 7.48%; viability, T/C (second compound 0.00949 µM, first compound 30 µM): 2.29%; viability, T/C (second compound 0.03 µM, first compound 9.49 µM): 1.43%; viability, T/C (second compound 0.03 µM, first compound 30 µM): 1.97%; viability, T/C [24]: 1.38%; viability, T/C (second compound 0.0949 µM, first compound 9.49 µM): 1.27%; viability, T/C (second compound 0.0949 µM, first compound 30 µM): 1.95%; viability, T/C [27]: 0.94%; viability, T/C [28]: 1.16%; viability, T/C [29]: 0.93%; viability, T/C [30]: 0.82%; viability, T/C (second compound 0.3 µM, first compound 9.49 µM): 0.61%; viability, T/C (second compound 0.3 µM, first compound 30 µM): 0.6%
